Measured values taken from the NIST ThermoML archive (doi:10.1021/je060271a).
“And” between values parts separate entries of the source, which are not always exact repeats. Identical values can stand only once.

Details: Liquid, Vibrating tube method

CCCCCC(=O)OCC(COC(=O)CCCCC)(COC(=O)CCCCC)COC(=O)CCCCC [pentaerythritol tetrahexanoate]
Details	mass density
283.16 K, 9726 kPa	1009.7 kg/m3
283.16 K, 9740.5 kPa	1009.7 kg/m3
283.16 K, 11666 kPa	1010.8 kg/m3
283.16 K, 11699 kPa	1010.9 kg/m3
283.16 K, 11719 kPa	1011 kg/m3
283.16 K, 11736 kPa	1010.9 kg/m3
283.16 K, 11882 kPa	1011 kg/m3
283.16 K, 15896 kPa	1013.2 kg/m3
283.16 K, 15917 kPa	1013.2 kg/m3
283.16 K, 15934 kPa	1013.3 kg/m3
283.16 K, 15952 kPa	1013.2 kg/m3
283.16 K, 15973 kPa	1013.2 kg/m3
283.16 K, 15990 kPa	1013.1 kg/m3
283.16 K, 16007 kPa	1013.1 kg/m3
283.16 K, 16028 kPa	1013.2 kg/m3
283.16 K, 16047 kPa	1013.4 kg/m3
283.16 K, 17073 kPa	1013.9 kg/m3
283.16 K, 17091 kPa	1013.8 kg/m3
283.16 K, 17101 kPa	1013.8 kg/m3
283.16 K, 17102 kPa	1013.8 kg/m3
283.16 K, 17103 kPa	1013.9 kg/m3
283.16 K, 21750 kPa	1016.3 kg/m3
283.16 K, 24165 kPa	1017.6 kg/m3
283.16 K, 24256 kPa	1017.8 kg/m3
283.16 K, 24293 kPa	1017.8 kg/m3
283.16 K, 24310 kPa	1017.7 kg/m3
283.16 K, 24348 kPa	1017.7 kg/m3
283.16 K, 26923 kPa	1019 kg/m3
283.16 K, 26937 kPa	1019 kg/m3
303.14 K, 14075 kPa	997.2 kg/m3
303.14 K, 21030 kPa	1001.2 kg/m3
303.14 K, 32666 kPa	1007.6 kg/m3
303.14 K, 32689 kPa	1007.7 kg/m3
303.14 K, 32708 kPa	1007.8 kg/m3
303.14 K, 32727 kPa	1007.7 kg/m3
303.14 K, 32750 kPa	1007.8 kg/m3
303.14 K, 32770 kPa	1007.7 kg/m3
303.14 K, 32789 kPa	1007.7 kg/m3
303.14 K, 34002 kPa	1008.2 kg/m3
303.14 K, 34004 kPa	1008.4 kg/m3
303.14 K, 34018 kPa	1008.3 kg/m3
303.14 K, 34022 kPa	1008.4 kg/m3
303.14 K, 34024 kPa	1008.4 kg/m3
303.14 K, 34030 kPa	1008.3 kg/m3
303.14 K, 34038 kPa	1008.4 kg/m3
303.14 K, 34043 kPa	1008.4 kg/m3
303.14 K, 34049 kPa	1008.2 kg/m3
303.14 K, 34053 kPa	1008.4 kg/m3
303.14 K, 34057 kPa	1008.5 kg/m3
303.14 K, 34060 kPa	1008.3 kg/m3
303.14 K, 34063 kPa	1008.4 kg/m3
303.14 K, 34084 kPa	1008.5 kg/m3
303.14 K, 34101 kPa	1008.4 kg/m3
303.14 K, 34115 kPa	1008.4 kg/m3
303.14 K, 34131 kPa	1008.4 kg/m3
303.14 K, 34147 kPa	1008.4 kg/m3
303.14 K, 34159 kPa	1008.4 kg/m3
303.14 K, 34165 kPa	1008.6 kg/m3
303.14 K, 34169 kPa	1008.5 kg/m3
303.14 K, 34174 kPa	1008.4 kg/m3
303.15 K, 191.8 kPa	988.6 kg/m3
303.15 K, 192.2 kPa	988.4 kg/m3
303.15 K, 192.4 kPa	988.5 kg/m3
303.15 K, 192.5 kPa	988.3 kg/m3
303.15 K, 192.7 kPa	988.4 kg/m3
303.15 K, 193.2 kPa	988.5 kg/m3
303.15 K, 193.4 kPa	988.5 kg/m3 and 988.4 kg/m3
303.15 K, 193.6 kPa	988.6 kg/m3
303.15 K, 193.9 kPa	988.5 kg/m3
303.15 K, 194.8 kPa	988.4 kg/m3 and 988.5 kg/m3
303.15 K, 195 kPa	988.5 kg/m3
303.15 K, 195.1 kPa	988.5 kg/m3
